# Reference: patent US12350308B2, “Phosphorylcholine conjugates and uses thereof” (TPCERA LTD., priority 2013, dated 2025)
# *1 amine or outer side, *2 acyl side, *3 side chain or, on linkers, in order; H or OH if unused. Where a SMILES comes first, the peptide text is derived from it. [ ]: non-standard residue; d: D form. X1 = C[N+](C)(C)CCOP(=O)([O-])Oc1ccc(N=Nc2cc(C[C@H](N[*:1])C(=O)[*:2])ccc2O)cc1
# Columns and labels:
# colon lysates = assay: Cytokine expression in colon lysates of colitis mice (immunoblot); type: in vivo
# Protocol: The expression of the proinflammatory cytokines (TNFα, IL-17, IL-113) and anti-inflammatory cytokine IL-10 was analyzed by immunoblot in colon lysates.
# NZBxW/F1 lupus mice [1] = assay: Circulating anti-dsDNA antibodies in lupus mice treated with TD-PC (ELISA); type: in vivo; details: sera at 30 weeks, dilution 1:800; between groups incl. PBS
# Protocol: Titers of circulating anti-dsDNA antibodies in the sera of control and treated mice were monitored during the development of lupus, and their levels were measured every 3 weeks. […] FIG. 23 presents the anti dsDNA antibodies titers in the sera at the age 30 weeks at a dilution of 1:800.
# THP-1 cells = assay: Shift of M1 polarized macrophages to M2 macrophages secreting IL-10; type: cell-based, human; details: 5 μg/ml for 72 hrs; in comparison to OVA-PC
# Protocol: The relative expression of the anti-inflammatory cytokine IL-10 was analyzed in human macrophages treated with TD-PC (TD-PC), and PC-Ovalbumin (OVA-PC). Specifically, THP-1 cells (a monocytic cell line established from human monocytic leukemia) were induced to differentiation into adherent macrophage-like phenotype (M0) by culturing the cells (10^5 cells/ml) in the presence of phorbol 12-myristate 13-acetate (PMA; 80 nM) and VD3 (100 nM). For inducing differentiation from M0 to M1 (M1 polarized macrophages) the cells were further incubated with LPS (1 μg/ml), IFNγ (20 ng/ml). For shifting from M1 to M2 macrophages (M2 polarized macrophages) the cells were washed and further incubated with IL-4 (10 ng/ml) and IL-13 (10 ng/ml) for 72 hours.
# In order to determine whether TD-PC, TD, PC or PC-OVA can induce a shift form M1 cells to M2 macrophages secreting anti-inflammatory cytokine IL-10, M1 polarized macrophages were incubated with each molecule or conjugate at 5 μg/ml for 72 hrs.
# NZBxW/F1 lupus mice [2] = assay: Survival of lupus mice treated with TD-PC (Kaplan-Meier); type: in vivo; details: already at week 24
# Protocol: A main complication of lupus nephritis is a short survival time due to severe kidney failure. Therefore, the survival time of mice treated either with TD-PC or with PC, tuftsin derivative (SEQ ID NO: 25) or PBS (control) was analyzed.
# [3] = system: CD4+CD25+FOXP3+ Treg cells; assay: Treg expansion in splenocytes of mice with established CIA (FACS); type: in vivo; details: isolated splenocytes; PBS 1.4%
# Source text: The frequency of CD4+CD25+FOXP3+ Treg cells subset in isolated splenocytes from mice treated with TPC, PBS, TD (SEQ ID NO: 25), PC, TD+PC or untreated is elucidated in FIGS. 33A and 33B. […] Representative data of the CD4+CD25+FOXP3+ levels in splenocytes derived from TD-PC, PBS, TD (SEQ ID NO: 25), PC and TD+PC treated mice and the untreated group, gating on CD4+ T cells are presented in FIG. 33B.
# CIA mice = assay: Arthritis score in CIA mice treated orally or s.c. with TD-PC; type: in vivo; details: day 31
# Source text: The main characteristic of rheumatoid arthritis is joint deformation due to high inflammation. The TD-PC effect on arthritis score in CIA mice was monitored. […] Arthritis score was lower in both groups of TD-PC treatment (oral and s.c.) starting two weeks after disease induction—day 14, until the mice were sacrificed—day 31.
# DBA/1 CIA mice = assay: Arthritis score in mice with established CIA (treatment from day 16); type: in vivo
# Source text: Rheumatoid Arthritis is a progressive joint deformation disease caused by severe inflammation. CIA mice were subjected to subcutaneous injections of TD-PC, tuftsin derivative (SEQ ID NO: 25), PC, a mix of TD and PC, or PBS, 3 times a week. […] Treatment started as day 16 after disease induction when disease symptoms were already notable. […] The significant reduction in arthritis score was illustrious from day 7 after treatment administration and lasted until day 35 (the day mice were sacrificed).
# CD4+CD25+FOXP3+ Tregs = assay: Treg expansion in spleen cells of lupus mice treated with TD-PC (FACS); type: in vivo; details: gating on CD4+ T cells; PBS 4%
# Source text: The percentage of CD4+CD25+FOXP3+ Tregs phenotype subset in spleen cells following treatment with TD-PC, tuftsin derivative (SEQ ID NO: 25), PC or PBS, is elucidated in FIGS. 25A-25B.
# male C57BL/6 mice = assay: DSS induced acute colitis in mice; type: in vivo
# Protocol: The effect of PC-tuftsin derivative (SEQ ID NO: 25) on colitis development was determined in a mouse model subjected to induction of acute colitis by dextran sulfate sodium (DSS) treatment. Specifically, induction of colitis was carried out in male C57BL/6 mice (“colitis mice”) by supplementing the drinking water (2.5% wt/v) for five days with DSS (mol. wt. 36,000-50,000).
# Two groups of mice were fed daily via oral ingestion using a feeding-needle, with PC-tuftsin derivative at a concentration of 500 μg/0.1 ml per mouse (treatment; n=10), or PBS (control; n=10). These compounds were given during 11 days starting two days before DSS administration.
# Assessment of colitis development was performed by monitoring body weight, rectal bleeding, stool consistency, and survival every second day. Intestinal bleeding was followed by Hemoccult test and observation of bleeding signs on the anus or gross bleeding. The daily disease activity index (DAI) was calculated by grading on a scale of zero to four the following parameters: change in weight (0, <1%; 1, 1-5%; 2, 5-10%; 3, 10— 15%; and 4, >15%), intestinal bleeding (0, negative; 4, positive), and stool consistency (0, normal; 2, loose stools; 4, diarrhea). The combined scores were then divided by three to obtain the final disease activity index. Ten days following disease induction, mice were sacrificed and the large intestine was collected and evaluated for colon length and microscopic colonic damage. For microscopic scoring, the proximal, medial, and distal portions of the colon and the cecum were fixed in 10% phosphate-buffered formalin. Paraffin-embedded sections were stained with H&E. The degree of histological damage and inflammation was graded in a blinded fashion by an expert pathologist
# [4] = 500 μg/0.1 ml oral daily, vs PBS
smiles,measurement,setting,value
"C[C@@H](O)[C@H](N)C(=O)N[C@@H](CCCCN)C(=O)N1CCC[C@H]1C(=O)N[C@@H](CCCNC(=N)N)C(=O)NCC(=O)N[C@@H](Cc1ccc(O)c(N=Nc2ccc(OP(=O)([O-])OCC[N+](C)(C)C)cc2)c1)C(=O)O [TD-PC, Thr-Lys-Pro-Arg-Gly-Tyr-PC] (H-TKPRG[X1]-OH)",IL-1β expression in colon lysates,colon lysates,suppressed
same,IL-10 expression in colon lysates,colon lysates,Significant increased
same,IL-17 expression in colon lysates,colon lysates,suppressed
same,TNFα expression in colon lysates,colon lysates,suppressed
same,titers of circulating anti-dsDNA antibodies,NZBxW/F1 lupus mice [1],No statistically significant change
same,shift of M1 macrophages to M2 macrophages secreting IL-10,THP-1 cells,significant shift
same,percentage of death number vs PBS injected mice,NZBxW/F1 lupus mice [2],significant difference
same,mean percentage of CD4+CD25+FOXP3+ Treg cells,[3],8.75%
same,mean arthritis score,"CIA mice; TD-PC treated groups (oral and s.c.), control 11.8",1.5 (ranged from 0 to 4)
same,mean arthritis score,"CIA mice; oral, PBS oral 12.6±1.14",1.6±1.5
same,mean arthritis score,"CIA mice; s.c., PBS s.c 11±1.22",1.4±0.84
same,mean arthritis score,"DBA/1 CIA mice; day 35, s.c. 3 times a week, PBS 13.8±0.45",6.8±0.8
same,average arthritis score,"DBA/1 CIA mice; time 0 (treatment initiation, day 16 after disease induction), baseline",3.6±0.9
same,CD4+CD25+FOXP3+ Tregs in spleen cells,CD4+CD25+FOXP3+ Tregs,18%
same,daily disease activity index (DAI) score,"male C57BL/6 mice; 500 μg/0.1 ml oral daily, day 8, PBS 2.6 after 5 days",around 0.9
same,loss of weight,male C57BL/6 mice; [4],significantly low
same,rectal bleeding,male C57BL/6 mice; [4],significantly low
same,survival,male C57BL/6 mice; [4],significantly higher survival
same,colon length,male C57BL/6 mice; PBS mice five-six cm,eight
same,histological analysis of colon sections (H&E),male C57BL/6 mice; vs PBS,attenuated colon destruction
